Molecular target: ATP-dependent translocase ABCB1 (Homo sapiens, UniProt P08183)
Assay: TP_TRANSPORTER: intracellular accumulation in CEM/MTX R cells
Type: functional, cell-based

Chain of ATP-dependent translocase ABCB1 (P08183 whole entry): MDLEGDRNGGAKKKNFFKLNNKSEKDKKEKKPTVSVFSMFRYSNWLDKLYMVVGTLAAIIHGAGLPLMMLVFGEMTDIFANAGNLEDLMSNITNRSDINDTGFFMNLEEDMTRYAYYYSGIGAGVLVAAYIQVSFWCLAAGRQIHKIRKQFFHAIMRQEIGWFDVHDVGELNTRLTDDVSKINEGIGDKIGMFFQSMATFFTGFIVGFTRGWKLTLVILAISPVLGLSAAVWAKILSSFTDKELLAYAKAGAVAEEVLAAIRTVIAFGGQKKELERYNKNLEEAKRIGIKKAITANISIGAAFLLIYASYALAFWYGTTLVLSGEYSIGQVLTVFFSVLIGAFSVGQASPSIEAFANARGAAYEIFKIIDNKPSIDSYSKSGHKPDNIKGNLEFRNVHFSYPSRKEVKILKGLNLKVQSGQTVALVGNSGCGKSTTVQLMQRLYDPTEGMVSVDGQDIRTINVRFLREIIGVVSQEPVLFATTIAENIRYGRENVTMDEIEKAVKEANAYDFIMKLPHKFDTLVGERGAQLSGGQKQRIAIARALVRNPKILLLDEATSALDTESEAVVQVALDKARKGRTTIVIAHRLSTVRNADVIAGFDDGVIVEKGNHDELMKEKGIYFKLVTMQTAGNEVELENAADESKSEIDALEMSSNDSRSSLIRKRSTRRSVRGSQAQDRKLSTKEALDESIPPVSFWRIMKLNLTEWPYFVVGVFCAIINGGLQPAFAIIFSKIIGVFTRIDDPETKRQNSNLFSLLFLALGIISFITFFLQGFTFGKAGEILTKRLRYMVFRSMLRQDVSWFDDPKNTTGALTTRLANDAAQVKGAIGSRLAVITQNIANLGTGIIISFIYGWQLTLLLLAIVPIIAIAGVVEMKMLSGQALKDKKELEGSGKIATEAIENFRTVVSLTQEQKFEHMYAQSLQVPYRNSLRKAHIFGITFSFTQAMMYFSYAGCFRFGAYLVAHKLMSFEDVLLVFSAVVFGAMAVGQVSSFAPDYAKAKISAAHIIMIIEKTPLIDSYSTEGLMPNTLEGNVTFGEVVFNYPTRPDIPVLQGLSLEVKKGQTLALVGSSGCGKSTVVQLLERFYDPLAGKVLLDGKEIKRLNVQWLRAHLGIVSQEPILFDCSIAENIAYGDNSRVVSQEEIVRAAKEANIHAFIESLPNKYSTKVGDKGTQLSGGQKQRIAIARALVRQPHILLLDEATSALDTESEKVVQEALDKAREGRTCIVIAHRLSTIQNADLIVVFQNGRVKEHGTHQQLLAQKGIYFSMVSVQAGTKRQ

Activity: substrate [+]
Compound: CN(Cc1cnc2nc(N)nc(N)c2n1)c1ccc(C(=O)N[C@@H](CCC(=O)O)C(=O)O)cc1 [METHOTREXATE]

Reference: ChEMBL document CHEMBL2074032, “Involvement of MDR1 P-glycoprotein in multifactorial resistance to methotrexate” (Int J Cancer, 1996)
